Laboratory results published in PMC6225228, “Design, Synthesis and Evaluation of N-pyrazinylbenzamides as Potential Antimycobacterial Agents” (Molecules : A Journal of Synthetic Chemistry and Natural …, 2018).
In brackets after ≈: the same amount, converted by molar mass. Like-named read-outs stand apart in the source and are kept apart here. Marks after values point to notes of the source that are not given here.

Legend:
[1] = test system: M. avium ssp. avium CNCTC My 80/72 (ATCC 15769); assay: Antimycobacterial microdilution MABA, M. avium; assay type: cell-based, Mycobacterium avium; details: for MIC: Mycobacterium avium
[2] = test system: Staphylococcus aureus CCM 4516/08; assay: Antibacterial microdilution broth, SA; assay type: cell-based
[3] = test system: Staphylococcus aureus H 5996/08 methicillin resistant; assay: microbe, parasite or virus in culture; assay type: cell-based; details: for MIC: Staphylococcus aureus, MRSA, read-out: MIC MRSA
[4] = test system: Staphylococcus epidermidis H 6966/08; assay: Antibacterial microdilution broth, SE; assay type: cell-based; details: read-out: MIC SE
[5] = test system: Mycobacterium tuberculosis H37Rv CNCTC My 331/88 (ATCC 27294); assay: Antimycobacterial microdilution MABA, M. tuberculosis; assay type: cell-based; details: for MIC: Mycobacterium tuberculosis
[6] = test system: Candida albicans ATCC 44859; assay: Antifungal microdilution broth, CA; assay type: cell-based; details: Candida albicans, read-out: MIC CA
[7] = test system: Enterococcus sp. J 14365/08; assay: Antibacterial microdilution broth, EF; assay type: cell-based; details: Enterococcus, read-out: MIC EF
[8] = test system: Pseudomonas aeruginosa CCM 1961; assay: Antibacterial microdilution broth, PA; assay type: cell-based; details: Pseudomonas aeruginosa, read-out: MIC PA
[9] = test system: Trichophyton interdigitale 445; assay: Antifungal microdilution broth, TI; assay type: cell-based; details: read-out: MIC TI
[10] = test system: Candida tropicalis 156; assay: Antifungal microdilution broth, CT; assay type: cell-based; details: read-out: MIC CT
[11] = test system: Aspergillus fumigatus 231; assay: Antifungal microdilution broth, AF; assay type: cell-based; details: read-out: MIC AF
[12] = test system: M. kansasii CNCTC My 235/80 (ATCC 12478); assay: Antimycobacterial microdilution MABA, M. kansasii; assay type: cell-based, Mycobacterium kansasii; details: for MIC: Mycobacterium kansasii
[13] = test system: Escherichia coli CCM 4517; assay: Antibacterial microdilution broth, EC; assay type: cell-based; details: Escherichia coli, read-out: MIC EC
[14] = test system: Candida krusei E28; assay: Antifungal microdilution broth, CK; assay type: cell-based; details: Pichia kudriavzevii, read-out: MIC CK
[15] = test system: Trichosporon asahii 1188; assay: Antifungal microdilution broth, TA; assay type: cell-based; details: read-out: MIC TA
[16] = test system: Candida glabrata 20/I; assay: Antifungal microdilution broth, CG; assay type: cell-based; details: Nakaseomyces glabratus, 20/I, read-out: MIC CG
[17] = test system: Mycobacterium smegmatis CCM 4622 (ATCC 607); assay: Antimycobacterial microdilution, M. smegmatis; assay type: cell-based; details: Mycolicibacterium smegmatis, read-out: M. smeg. ATCC 607 MIC
[18] = test system: Lichtheimia corymbifera 272; assay: Antifungal microdilution broth, LC; assay type: cell-based; details: read-out: MIC LC
[19] = ATCC15769, pH 6.6, read-out: M. avium ATCC 15769 MIC
[20] = Staphylococcus aureus, CCM4516, 24 h, read-out: MIC SA, 24 h
[21] = Staphylococcus aureus, CCM4516, 48 h, read-out: MIC SA, 48 h
[22] = Staphylococcus epidermidis, H6966/08, 24 h
[23] = Staphylococcus epidermidis, H6966/08, 48 h
[24] = Middlebrook 7H9 with OADC growth supplement, pH = 6.6, MABA
[25] = read-out: Mtb H37Rv ATCC 27294 MIC, Middlebrook 7H9 with OADC growth supplement, pH = 6.6, MABA
[26] = Trichophyton interdigitale, 445, 72 h
[27] = Trichophyton interdigitale, 445, 120 h
[28] = Aspergillus fumigatus, 231, 24 h
[29] = Aspergillus fumigatus, 231, 48 h
[30] = ATCC12478, pH 6.6, read-out: M. kans. ATCC 12478 MIC, Middlebrook 7H9 with OADC, pH 6.6, MABA
[31] = Trichosporon asahii, 1188, 24 h
[32] = Trichosporon asahii, 1188, 48 h
[33] = Lichtheimia corymbifera, 272, 24 h
[34] = Lichtheimia corymbifera, 272, 48 h
[35] = Middlebrook 7H9 with OADC, pH 6.6, MABA
[36] = ATCC15769, Middlebrook 7H9 with OADC, pH 6.6, MABA, read-out: M. avium ATCC 15769 MIC
[37] = Middlebrook 7H9 with OADC growth supplement, pH = 6.6, MABA, read-out: Mtb H37Rv ATCC 27294 MIC
[38] = ATCC12478, Middlebrook 7H9 with OADC, pH 6.6, MABA, read-out: M. kans. ATCC 12478 MIC
[39] = Middlebrook 7H9 with OADC, resazurin

## O=C(Nc1cnc(Cl)cn1)c1ccccc1Cl [Compound 2j]
[1]; [19]
  MIC: > 100 µg/mL
[2]; 24 h, read-out: MIC SA
  MIC: 62.50 µM (≈ 16.8 µg/mL)
[2]; 48 h, read-out: MIC SA
  MIC: 62.50 µM (≈ 16.8 µg/mL)
[2]; [20]
  MIC: 62.5 µM (≈ 16.8 µg/mL)
[2]; [21]
  MIC: 62.5 µM (≈ 16.8 µg/mL)
[3]; 24 h
  MIC MRSA: >500 µM
  MIC: > 500 µM
[3]; 48 h
  MIC MRSA: >500 µM
  MIC: > 500 µM
[4]; 24 h
  MIC: >500 µM
[4]; 48 h
  MIC: >500 µM
[4]; [22]
  MIC: > 500 µM
[4]; [23]
  MIC: > 500 µM
[5]; [24]
  Mtb H37Rv ATCC 27294 MIC: >100 µg/mL
[5]; [25]
  MIC: > 100 µg/mL
[6]; ATCC44859, 24 h
  MIC: > 500 µM
[6]; ATCC44859, 48 h
  MIC: > 500 µM
[7]; SP.J14365/08, 24 h
  MIC: > 500 µM
[7]; SP.J14365/08, 48 h
  MIC: > 500 µM
[8]; CCM1961, 72 h
  MIC: > 500 µM
[8]; CCM1961, 120 h
  MIC: > 500 µM
[9]; [26]
  MIC: > 500 µM
[9]; [27]
  MIC: > 500 µM
[10]; Candida tropicalis, 156, 24 h
  MIC: > 500 µM
[10]; Candida tropicalis, 156, 48 h
  MIC: > 500 µM
[11]; [28]
  MIC: > 500 µM
[11]; [29]
  MIC: > 500 µM
[12]; [30]
  MIC: > 100 µg/mL
[13]; CCM4517, 24 h
  MIC: > 500 µM
[13]; CCM4517, 48 h
  MIC: > 500 µM
[14]; E28, 24 h
  MIC: > 500 µM
[14]; E28, 48 h
  MIC: > 500 µM
[15]; [31]
  MIC: > 500 µM
[15]; [32]
  MIC: > 500 µM
[16]; 24 h
  MIC: > 500 µM
[16]; 48 h
  MIC: > 500 µM
[17]
  MIC: ≥ 500 µg/mL
[18]; [33]
  MIC: > 500 µM
[18]; [34]
  MIC: > 500 µM

## O=C(Nc1cnc(Cl)cn1)c1cccc(C(F)(F)F)c1 [Compound 2n]
[1]; [35]
  M. avium ATCC 15769 MIC: >100 µg/mL
[1]; [36]
  MIC: > 100 µg/mL
[5]; [37]
  MIC: 25 µg/mL (≈ 82.9 µM)
[12]; [35]
  M. kans. ATCC 12478 MIC: >100 µg/mL
[12]; [38]
  MIC: > 100 µg/mL
other
  melting point: 155.4 to 156.4 °C
[17]; [39]
  MIC: ≥ 500 µg/mL

## O=C(Nc1cncc(Cl)n1)c1ccccc1 [Compound 3a]
[1]; [36]
  MIC: > 100 µg/mL
[5]; [24]
  Mtb H37Rv ATCC 27294 MIC: >100 µg/mL
[5]; [37]
  MIC: > 100 µg/mL
[12]; [38]
  MIC: > 100 µg/mL
other
  melting point: 152.8 to 153.6 °C
[17]; [39]
  MIC: ≥ 500 µg/mL

## COc1cccc(C(=O)Nc2cncc(Cl)n2)c1 [Compound 3f]
[1]; [35]
  M. avium ATCC 15769 MIC: 100 ^c µg/mL
[1]; [36]
  MIC: 100 µg/mL (≈ 379 µM)
[5]; [24]
  Mtb H37Rv ATCC 27294 MIC: 50 µg/mL
[5]; [37]
  MIC: 50 µg/mL (≈ 190 µM)
[12]; [35]
  M. kans. ATCC 12478 MIC: 100 ^c µg/mL
[12]; [38]
  MIC: 100 µg/mL (≈ 379 µM)
other
  melting point: 131.6 to 132.7 °C
[17]; [39]
  MIC: ≥ 500 µg/mL

## O=C(Nc1cncc(Cl)n1)c1ccccc1Cl [Compound 3j]
[1]; [19]
  MIC: > 100 µg/mL
[2]; [20]
  MIC: > 500 µM
[2]; [21]
  MIC: > 500 µM
[3]; 24 h
  MIC: > 500 µM
[3]; 48 h
  MIC: > 500 µM
[4]; [22]
  MIC: > 500 µM
[4]; [23]
  MIC: > 500 µM
[5]; [24]
  Mtb H37Rv ATCC 27294 MIC: >100 µg/mL
[5]; [25]
  MIC: > 100 µg/mL
[6]; ATCC44859, 24 h
  MIC: > 500 µM
[6]; ATCC44859, 48 h
  MIC: > 500 µM
[7]; SP.J14365/08, 24 h
  MIC: > 500 µM
[7]; SP.J14365/08, 48 h
  MIC: > 500 µM
[8]; CCM1961, 72 h
  MIC: > 500 µM
[8]; CCM1961, 120 h
  MIC: > 500 µM
[9]; [26]
  MIC: > 500 µM
[9]; [27]
  MIC: > 500 µM
[10]; Candida tropicalis, 156, 24 h
  MIC: > 500 µM
[10]; Candida tropicalis, 156, 48 h
  MIC: > 500 µM
[11]; [28]
  MIC: > 500 µM
[11]; [29]
  MIC: > 500 µM
[12]; [30]
  MIC: > 100 µg/mL
[13]; CCM4517, 24 h
  MIC: > 500 µM
[13]; CCM4517, 48 h
  MIC: > 500 µM
[14]; E28, 24 h
  MIC: > 500 µM
[14]; E28, 48 h
  MIC: > 500 µM
[15]; [31]
  MIC: > 500 µM
[15]; [32]
  MIC: > 500 µM
[16]; 24 h
  MIC: > 500 µM
[16]; 48 h
  MIC: > 500 µM
[17]
  MIC: ≥ 500 µg/mL
[18]; [33]
  MIC: > 500 µM
[18]; [34]
  MIC: > 500 µM
